These results are taken from patent publication US9897592B2, “Methods for identifying arthropod repellents and attractants, and compounds and compositions identified by such methods” (The Regents of the University of California, priority 2013, dated 2018).

The test system of the assay is cpA neuron. The assay can be described thus: Single-sensillum recording: activation of cpA neuron by odorants. The assay is classed as cell-based, Aedes aegypti. The settings on record: for Activation (spikes s^−1): A. aegypti cpA, 0.5-s pulses, odorants 10^−2 in paraffin oil or water, solvent response subtracted; for Activation (spikes s−1): cpA neuron, 20 compounds from the top 200 SVM ligand predictions, negative values = inhibition, N = 4. As for the experimental part:
FIG. 3b depicts representative traces and mean responses of the A. aegypti cpA neuron to 0.5-s pulses of 138 predicted compounds screened using single-sensillum recordings, in which odorants were diluted to 10^−2 in paraffin oil or water, and responses to solvent have been subtracted, n=2-6, and error bars are s.d.
FIG. 5f is a bar graph illustrating the mean responses of the A. aegypti cpA neuron to 0.5-s pulses of 22 newly predicted compounds screened as in FIG. 3b, where salmon bars correspond to odorants found in human odor, odorants were diluted to 10^−2 in paraffin oil or water, and responses to solvent have been subtracted, and n=2-5.
Adult female A. aegypti (Linnaeus 1762) (Rockefeller strain) A. gambiae sensu stricto Giles 1902 (G3 strain), or C. quinquefasciatus Say 1823 were tested 3-12 days post-emergence with single-sensillum extracellular recordings. Chemicals were obtained from Sigma-Aldrich at the highest purity (typically >99%) and were dissolved in paraffin oil or water. […] Response to clean beads was subtracted from the results reported. Only sensilla with cpA activity of <20 spikes s^−1 to negative control were considered for analysis.
CpA-off and sham treated mosquitoes were pre-treated for 3 min in an upended 1 L glass dish in which 100 μl of fresh butyryl chloride (1%) or paraffin oil was allowed to vaporize for 10-20 min. The odor delivery system for different screens is shown in FIG. 7b; solvent responses during the same recording session were subtracted. Inhibition screen was tested. For the ultra-prolonged activator the 3-s stimulus was delivered from a 10 ml disposable pipette using a CS-55 stimulus controller (Syntech), CO2 was delivered, and responses to subsequent odor stimuli were calculated by subtracting baseline activity 1 s prior to each stimulus. When responses to repeated pulses of cyclopentanone and CO2 were compared, baseline activity between seconds 5 and 6 following each stimulus was subtracted. Spike counting was done manually or with Igor Pro6.2 (Wavemetrics) with the Neuromatic v2.00 macro (by Jason Rothman), and peak-to-peak spike amplitudes for FIG. 8 were analysed in Clampfit 10.3 (Molecular Devices).
From the large list of cpA receptor ligands predicted from Example 3 above, 138 compounds were selected based on desirable criteria for application such as smell, presence in natural sources, human safety profile, and cost to procure. These compounds were tested individually using single-sensillum electrophysiology on the cp sensillum of female A. aegypti, according to the procedure described in Example 1 above.

Each structure is given as a SMILES string. Structures can show the parent of a compound that is named as a salt.

Take `c1cnc2cccnc2c1` [1,5-naphthyridine]: the “Activation (spikes s^−1)” value was determined as 1.5 spikes s^−1.
On the same count and under the same terms, as for `CC(=O)c1ccc[nH]1` [1-(1H-pyrrol-2-yl)ethanone], the figure is 1.5 spikes s^−1.
As for `CC(=O)C1=NCCS1` [1-(4,5-dihydro-1,3-thiazol-2-yl)ethanone], the “Activation (spikes s^−1)” value stood at 8.0 spikes s^−1.
For `Cn1cccc1` [1-methylpyrrole], the “Activation (spikes s^−1)” value amounted to 54.2 spikes s^−1.
For `C=CCCC` [1-pentene], the “Activation (spikes s−1)” value is recorded as 10.3 spikes s−1.
Regarding `CCCC(=O)c1ccccc1` [1-phenylbutan-1-one], the “Activation (spikes s^−1)” value is 1.5 spikes s^−1.
For `CCC(O)c1ccccc1` (stereo not drawn) [1-phenylpropan-1-ol], the “Activation (spikes s^−1)” value is reported as −3.5 spikes s^−1.
For the compound `CC(=O)c1ccncc1` [1-pyridin-4-ylethanone], the “Activation (spikes s^−1)” value was found to be 3.5 spikes s^−1.
In the case of `O=Cc1cnc[nH]1` [1H-imidazole-5-carbaldehyde], the “Activation (spikes s^−1)” value came to 2.5 spikes s^−1.
On to `c1cc[nH]c1` [1H-pyrrole], for which the “Activation (spikes s^−1)” value came to 89.8 spikes s^−1.
On the same count and under the same terms, as for `CCc1nccnc1CC` [2,3-diethylpyrazine], the figure is −15.5 spikes s^−1; as for `C=C(C)C(=C)C` [2,3-dimethylbuta-1,3-diene], 10.0 spikes s^−1.
In the case of `Cc1csc(C)n1` [2,4-dimethyl-1,3-thiazole], the “Activation (spikes s−1)” value is 39.0 spikes s−1.
Same read-out and setting: as for `Cc1ccc(C)s1` [2,5-dimethylthiophene], the figure is 0.3 spikes s−1.
With `CC1CCCC(C)N1` (stereo not drawn) [2,6-dimethylpiperidine], the “Activation (spikes s^−1)” value came out at 2.5 spikes s^−1.
Still for that read-out and setting: as for `Cc1cncc(C)n1` [2,6-dimethylpyrazine], the figure is 14.8 spikes s^−1; as for `CC(C)Cc1nccs1` [2-(2-methylpropyl)-1,3-thiazole], 12.0 spikes s^−1.
`Cc1ncsc1CCO` [2-(4-methyl-1,3-thiazol-5-yl)ethanol]: the “Activation (spikes s^−1)” value was 4.5 spikes s^−1.
The same measure, in the same setting: to `CCOCc1cnccn1` [2-(ethoxymethyl)pyrazine] belongs −8.0 spikes s^−1; to `CC(C)SCc1ccco1` [2-(propan-2-ylsulfanylmethyl)furan], −0.5 spikes s^−1.
For `C[N+](C)(C)CC(=O)[O-]` [2-(trimethylazaniumyl)acetate], the “Activation (spikes s^−1)” value is listed as 2.5 spikes s^−1.
On the same count and under the same terms, as for `CCC(C)C(N)C(=O)O` (stereo not drawn) [2-amino-3-methylpentanoic acid], the figure is −2.5 spikes s^−1; as for `CCC(N)C(=O)O` (stereo not drawn) [2-aminobutanoic acid], −3.0 spikes s^−1.
Still for that read-out and setting: to `CC(N)C(=O)O` (stereo not drawn) [2-aminopropanoic acid] belongs −1.5 spikes s^−1; to `CCC(C)c1nccnc1OC` (stereo not drawn) [2-butan-2-yl-3-methoxypyrazine], −10.5 spikes s^−1.
For `CCOC1CCCO1` (stereo not drawn) [2-ethoxyoxolane], the “Activation (spikes s^−1)” value was determined as 6.5 spikes s^−1.
On to `CCc1ccc[nH]1` [2-ethyl-1H-pyrrole], for which the “Activation (spikes s^−1)” value was determined as 8.5 spikes s^−1.
As to `CCc1nccnc1OC` [2-ethyl-3-methoxypyrazine], the “Activation (spikes s^−1)” value is recorded as −17.5 spikes s^−1.
Regarding `CCc1nccnc1C` [2-ethyl-3-methylpyrazine], the “Activation (spikes s^−1)” value was −7.5 spikes s^−1.
For the compound `CCc1cnccn1` [2-ethylpyrazine], the “Activation (spikes s^−1)” value stood at 34.5 spikes s^−1.
For `CCc1cccs1` [2-ethylthiophene], the “Activation (spikes s−1)” value is given as 9.3 spikes s−1.
As for `COc1nccnc1C` [2-methoxy-3-methylpyrazine], the “Activation (spikes s^−1)” value is listed as −27.5 spikes s^−1.
Still for that read-out and setting: to `Cc1nccnc1CC(C)C` [2-methyl-3-(2-methylpropyl)pyrazine] belongs 1.0 spikes s^−1; to `CSc1ccoc1C` [2-methyl-3-methylsulfanylfuran], 12.0 spikes s^−1; to `Cc1ccccc1C=O` [2-methylbenzaldehyde], 19.0 spikes s^−1.
On the same count and under the same terms, as for `CCC(C)C=O` (stereo not drawn) [2-methylbutanal], the figure is 33.5 spikes s^−1; as for `Cc1ccco1` [2-methylfuran], 48.0 spikes s^−1; as for `CC1OCCC1=O` (stereo not drawn) [2-methyloxolan-3-one], 58.4 spikes s^−1.
With `CC1CCCO1` (stereo not drawn) [2-methyloxolane], the “Activation (spikes s−1)” value is 82.5 spikes s−1.
Take `CCC=C(C)C=O` [2-methylpent-2-enal]: the “Activation (spikes s^−1)” value is on record as 36.5 spikes s^−1.
With `CC(C)CO` [2-methylpropan-1-ol], the “Activation (spikes s−1)” value was 95.0 spikes s−1.
`C/C=C\C(=O)OCC(C)C` [2-methylpropyl (Z)-but-2-enoate]: the “Activation (spikes s^−1)” value is recorded as −5.0 spikes s^−1.
On to `CC(C)COC=O` [2-methylpropyl formate], for which the “Activation (spikes s^−1)” value came out at 48.0 spikes s^−1.
The same measure, in the same setting: to `CCC(=O)C(=O)O` [2-oxobutanoic acid] belongs 7.0 spikes s^−1; to `CCCC(=O)C(=O)O` [2-oxopentanoic acid], 0.0 spikes s^−1.
For the compound `CCCCCc1ccccn1` [2-pentylpyridine], the “Activation (spikes s^−1)” value was −6.5 spikes s^−1.
`CC(C)CC(=O)OCCc1ccccc1` [2-phenylethyl 3-methylbutanoate]: the “Activation (spikes s^−1)” value came out at 4.5 spikes s^−1.
The same measure, in the same setting: as for `C/C=C(\C)C(=O)OCCc1ccccc1` [2-phenylethyl (E)-2-methylbut-2-enoate], the figure is 2.5 spikes s^−1; as for `CCCC(=O)OCCc1ccccc1` [2-phenylethyl butanoate], −5.5 spikes s^−1; as for `CCC(=O)OCCc1ccccc1` [2-phenylethyl propanoate], −1.5 spikes s^−1.
Still for that read-out and setting: to `CC1CC(=O)C(=O)C1C` (stereo not drawn) [3,4-dimethylcyclopentane-1,2-dione] belongs 1.5 spikes s^−1.
Consider `Cc1cncc(C)c1` [3,5-dimethylpyridine], for which the “Activation (spikes s^−1)” value is given as 7.5 spikes s^−1.
As to `CC(C)=CCCC(C)CCO` (stereo not drawn) [3,7-dimethyloct-6-en-1-ol], the “Activation (spikes s^−1)” value is 1.5 spikes s^−1.
With `CC(C)=CCCC(C)CC(=O)O` (stereo not drawn) [3,7-dimethyloct-6-enoic acid], the “Activation (spikes s^−1)” value came out at 6.0 spikes s^−1.
The same measure, in the same setting: as for `CC(C)Cc1cccnc1` [3-(2-methylpropyl)pyridine], the figure is 5.5 spikes s^−1.
Still for that read-out and setting: to `NCCC(=O)O` [3-aminopropanoic acid] belongs 8.0 spikes s^−1.
On the same count and under the same terms, as for `CCc1cccnc1` [3-ethylpyridine], the figure is 42.5 spikes s^−1.
With `CC(=O)C(C)O` (stereo not drawn) [3-hydroxybutan-2-one], the “Activation (spikes s^−1)” value was determined as 0.5 spikes s^−1.
Turning to `CC(C)=CC=O` [3-methylbut-2-enal], the “Activation (spikes s^−1)” value was found to be 55.5 spikes s^−1.
The same measure, in the same setting: to `CC(C)=CC(=O)O` [3-methylbut-2-enoic acid] belongs 0.5 spikes s^−1.
Take `C=C(C)CCO` [3-methylbut-3-en-1-ol]: the “Activation (spikes s−1)” value is 64.3 spikes s−1.
Consider `CC(C)CCO` [3-methylbutan-1-ol], for which the “Activation (spikes s^−1)” value is 51.8 spikes s^−1.
Take `CC(C)CC=O` [3-methylbutanal]: the “Activation (spikes s^−1)” value stood at 60.2 spikes s^−1.
